{
  "source": "patent US20250305004A1",
  "about": "“ENHANCING GENE TARGETING EFFICIENCY IN HUMAN CELLS WITH DNA-PK INHIBITOR TREATMENT” (The Board of Trustees of the Leland Stanford Junior …, priority 2022, published 2025)",
  "key": {"HSPCs [1]": {"system": "HSPCs", "conditions": "72 h post-gene targeting at CCR5, HBA1 and HBB loci; 0.5 μM", "description": "Cell viability measurement. MTT assay was used for measuring the gene edited PSC viability. […] After this incubation, MTT was removed, and cells were lysed using 100 μl of lysis buffer (0.1N HCl and 0.5% SDS in isopropanol). After lysis, absorbance was measured at 570 nm with 650 nm as the reference using a SpectraMax M3 plate reader (Molecular devices). The absorbance values were used to calculate the cell viability of gene edited cells as a percentage relative to the mock cells. […] Viable cell counts were represented as percentage relative to the mock or untreated cells as indicated."}, "STING1 locus in PSCs": {"system": "STING1 locus in PSCs", "experiment": "RNP/AAV6 gene targeting at STING1 locus (V155M) in PSCs", "type": "cell-based, human", "description": "In comparison, the untreated cells had around 30% INDELs (FIG. 4D-E).\nFor this, we tested gene targeting at the STING1 locus to introduce a point mutation (V155M) associated with an autoinflammatory disease called STING-associated vasculopathy with onset in infancy (SAVI)^86 (FIG. 12a). […] To test the feasibility of building a primary cell SAVI model, we next performed the STING1 gene targeting in human CD34+ HSPCs.\nPSC culture and genome editing. Gene editing experiments were performed with three PSC lines: H9 embryonic stem cells (ESC) (WiCell) and the previously described 1205-4 and 1208-2 iPS cell lines^106. PSCs were maintained in feeder free conditions on Matrigel (corning, cat: 354277) coated plates in mTeSR1 medium ([…] technologies, cat: 85850). For gene editing, 24 h prior to nucleofection PSCs were pretreated with 10 μM of Y27632 (Cayman Chemical, cat: 10005583). […] PSCs were dissociated into single cells using Accutase (Innovative Cell Technologies, cat: AT104). […] Resuspended cells were added to one well of a 16-well Nucleocuvette Strip (Lonza) and nucleofection was performed in the 4D nucleofector (Lonza) using the program, CA137. […] Gene targeting efficiency was analyzed at 4-6 days post-editing.\nICE analysis for quantification of gene editing."}, "HBB locus in PSCs": {"system": "HBB locus in PSCs", "experiment": "RNP/AAV6 gene targeting at HBB locus in PSCs", "type": "cell-based, human", "conditions": "UBC-GFP-bGHpA knock-in; 0.5 μM", "description": "Gene targeting efficiency was measured by droplet digital PCR (ddPCR) and flow cytometry (for GFP) to measure the allelic targeting efficiency (FIG. 2B) and percentage of targeted cells (FIG. 2C) respectively. […] The treatment was carried out for 24 hours post gene targeting and the efficiency was calculated 1 week post gene targeting using ddPCR analysis.\nFirst, we tested the treatment for editing the sickle cell disease (SCD) and cystic fibrosis (CF) mutations at HBB and CFTR loci respectively using the previously described Cas9 RNP and AAV6 donor reagents in WT PSC^71-73 (FIG. 19a-d).\nPSC culture and genome editing. […] Gene targeting efficiency was analyzed at 4-6 days post-editing.\nddPCR analysis of targeted integration. Gene targeting efficiency for the knock-in of multi-kb sequences was measured through digital droplet PCR (ddPCR) analysis. […] After PCR, the droplets were analyzed using the QX200 Droplet Digital PCR reader (Biorad) and Quantasoft software was used to determine the number of copies of the target and reference DNA in the droplets. The allelic gene targeting efficiency was calculated as the percentage of target DNA copies relative to that of the reference. […]\nICE analysis for quantification of gene editing. […] Following PCR, the amplicons were detected on agarose gel and purified from the gel using GeneJet Gel Extraction Kit (Thermo Fisher Scientific, cat: K0692). […]"}, "HSPCs [2]": {"system": "HSPCs", "experiment": "Colony forming units (CFU) assay and genotyping of CCR5 gene targeted HSPCs", "type": "cell-based, human", "conditions": "for colonies with bi-allelic HDR knock-in: untreated 9%", "description": "Colony forming units assay and genotyping of clones. For colony forming units (CFU) assay, 250 to 500 HSPCs were plated in SmartDish 6-well plates ([…] Technologies, cat: 27370) containing MethoCult H4434 Classic ([…] Technologies, cat: 04444). After 14 days, colonies were counted and scored using STEMvision automated counter ([…] Technologies) to determine the number of BFU-E, CFU-M, CFU-GM, and CFU-GEMM colonies. To determine the ratio of monoallelic vs biallelic integration, individual colonies of each type were picked and genomic DNA was extracted with QE. ddPCR was used to determine the clones with mono- vs bi-allelic integration as mentioned. WT and INDEL frequencies in the clones were determined using ICE analysis."}},
  "note": "“Also recorded” adds a separate entry of the source.",
  "data": [
    {"smiles": "Cc1cc2ncnn2cc1Nc1ncc2c(n1)n(C1CCOCC1)c(=O)n2C", "note": "[AZD7648, 7-methyl-2-((7-methyl-[1,2,4]triazolo[l,5-a]pyridin-6-yl)amino)-9-(tetrahydro-2H-pyran-4-yl)-7,9-dihydro-8H-purin-8-one]", "values": [
      {"measurement": "viable cell count vs mock cells", "setting": "HSPCs [1]", "value": "only a small drop in viable cell count"},
      {"measurement": "INDELs after gene targeting", "setting": "STING1 locus in PSCs; active gRNA (sg3)", "value": "without INDELs; also recorded: no INDELs"},
      {"measurement": "INDELs after gene targeting", "setting": "STING1 locus in PSCs; seemingly inactive gRNA (sg5), 0.5 μM", "value": "without indels; also recorded: no INDELs"},
      {"measurement": "effect on gene targeting vs untreated", "setting": "HBB locus in PSCs", "value": "enhanced the gene targeting significantly; also recorded: significant improvement"},
      {"measurement": "total colony number and colony type distribution", "setting": "HSPCs [2]; 0.5 μM", "value": "did not cause further decrease in total colony number nor a change in the colony type distribution"},
      {"measurement": "increase of colonies with bi-allelic HDR knock-in", "setting": "HSPCs [2]; BFU-E and CFU-GM, 0.5 μM", "value": "more than 7 fold"},
      {"measurement": "colonies with bi-allelic HDR knock-in", "setting": "HSPCs [2]; BFU-E", "value": 67, "unit": "%"},
      {"measurement": "colonies with bi-allelic HDR knock-in", "setting": "HSPCs [2]; CFU-GM", "value": 78, "unit": "%"}
    ]}
  ]
}
